How the values were obtained:
Test in all cases: relative viability (nuclei count vs DMSO), 5 days (fraction); higher = more cells survive
BI-D1870 + Bortezomib = compound: CC(C)CCN1c2nc(Nc3cc(F)c(O)c(F)c3)ncc2N(C)C(=O)C1C [BI-D1870] + CC(C)C[C@H](NC(=O)[C@H](Cc1ccccc1)NC(=O)c1cnccn1)B(O)O [Bortezomib] (partner 0.002 µM)
Summary of the method: (§1)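 Lung cancer cell lines in 1536-well plates got either a single drug or a fixed anchor-drug dose together with five library-drug doses (not always all listed) in √10 steps, by pin tool, on the day after seeding. Nuclei were counted after 5 days, and relative viability is the treated-to-vehicle ratio of nuclei counts. Values are medians of duplicate plates.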

BI-D1870 + Navitoclax = compound: CC(C)CCN1c2nc(Nc3cc(F)c(O)c(F)c3)ncc2N(C)C(=O)C1C [BI-D1870] + CC1(C)CCC(c2ccc(Cl)cc2)=C(CN2CCN(c3ccc(C(=O)NS(=O)(=O)c4ccc(N[C@H](CCN5CCOCC5)CSc5ccccc5)c(S(=O)(=O)C(F)(F)F)c4)cc3)CC2)C1 [Navitoclax] (partner 0.5 µM)
Summary of the method: as §1

BI-D1870 + Pemetrexed = compound: CC(C)CCN1c2nc(Nc3cc(F)c(O)c(F)c3)ncc2N(C)C(=O)C1C [BI-D1870] + Nc1nc2[nH]cc(CCc3ccc(C(=O)N[C@@H](CCC(=O)O)C(=O)O)cc3)c2c(=O)[nH]1 [Pemetrexed] (partner 0.2 µM)
Summary of the method: as §1

Zebularine + Phenformin = compound: O=c1ncccn1[C@@H]1O[C@H](CO)[C@@H](O)[C@H]1O [Zebularine] + N=C(N)NC(=N)NCCc1ccccc1 [Phenformin] (partner 250 µM)
Summary of the method: as §1

Row | Cell Line | relative viability (BI-D1870 + Bortezomib; first compound 0.04 µM) | relative viability (BI-D1870 + Bortezomib; first compound 0.1265 µM) | relative viability (BI-D1870 + Bortezomib; first compound 0.4 µM) | relative viability (BI-D1870 + Bortezomib; first compound 1.265 µM) | relative viability (BI-D1870 + Bortezomib; first compound 4 µM) | relative viability (BI-D1870 + Navitoclax; first compound 0.04 µM) | relative viability (BI-D1870 + Navitoclax; first compound 0.1265 µM) | relative viability (BI-D1870 + Navitoclax; first compound 0.4 µM) | relative viability (BI-D1870 + Navitoclax; first compound 1.265 µM) | relative viability (BI-D1870 + Navitoclax; first compound 4 µM) | relative viability (BI-D1870 + Pemetrexed; first compound 0.04 µM) | relative viability (BI-D1870 + Pemetrexed; first compound 0.1265 µM) | relative viability (BI-D1870 + Pemetrexed; first compound 0.4 µM) | relative viability (BI-D1870 + Pemetrexed; first compound 1.265 µM) | relative viability (BI-D1870 + Pemetrexed; first compound 4 µM) | relative viability (Zebularine + Phenformin; first compound 1 µM) | relative viability (Zebularine + Phenformin; first compound 3.162 µM) | relative viability (Zebularine + Phenformin; first compound 10 µM) | relative viability (Zebularine + Phenformin; first compound 31.62 µM) | relative viability (Zebularine + Phenformin; first compound 100 µM)
1 | NCI-H1650 | 0.214 | 0.223 | 0.209 | 0.184 | 0.186 | 1.26 | 1.05 | 1.23 | 1.34 | 1.15 | 0.405 | 0.358 | 0.338 | 0.427 | 0.373 | 0.493 | 0.476 | 0.307 | 0.492 | 0.353
2 | NCI-H1651 | 1.06 | 0.943 | 0.885 | 1.01 | 0.903 | 1.15 | 0.946 | 0.935 | 1.08 | 0.778 | 0.566 | 0.561 | 0.547 | 0.629 | 0.54 | 0.347 | 0.401 | 0.273 | 0.369 | 0.256
3 | NCI-H1666 | 0.871 | 0.598 | 0.985 | 0.879 | 0.754 | 0.89 | 0.822 | 0.81 | 0.933 | 0.851 | 0.857 | 0.835 | 0.895 | 0.812 | 0.779 | 0.594 | 0.551 | 0.531 | 0.591 | 0.495
4 | NCI-H1734 | 1.21 | 0.904 | 0.874 | 0.893 | 0.602 | 0.875 | 0.757 | 0.842 | 0.849 | 0.81 | 0.403 | 0.4 | 0.416 | 0.412 | 0.347 | 0.444 | 0.363 | 0.26 | 0.282 | 0.24
5 | NCI-H1755 | 1.07 | 0.921 | 0.949 | 1.09 | 0.937 | 1.06 | 0.945 | 0.995 | 1.07 | 1.01 | 0.497 | 0.469 | 0.408 | 0.465 | 0.408 | 0.671 | 0.612 | 0.592 | 0.684 | 0.53
6 | NCI-H1792 | 1.03 | 0.915 | 0.942 | 1.13 | 0.841 | 0.655 | 0.666 | 0.597 | 0.791 | 0.608 | 1.12 | 0.795 | 0.706 | 1.11 | 0.634 | 0.44 | 0.281 | 0.119 | 0.258 | 0.189
7 | NCI-H1915 | 1.04 | 0.951 | 0.905 | 1.03 | 0.879 | 0.822 | 0.763 | 0.803 | 0.815 | 0.746 | 0.473 | 0.489 | 0.458 | 0.419 | 0.381 | 0.373 | 0.381 | – | 0.379 | 0.349
8 | NCI-H1975 | 0.487 | 0.44 | 0.386 | 0.339 | 0.175 | 1.12 | 1.22 | 1.14 | 1.06 | 0.54 | 0.299 | 0.272 | 0.292 | 0.305 | 0.238 | 0.416 | 0.417 | 0.229 | 0.221 | 0.148
9 | NCI-H1993 | 1.22 | 0.961 | 1.12 | 1.31 | 0.981 | 0.91 | 0.888 | 0.988 | 1.07 | 0.73 | 0.646 | 0.605 | 0.582 | 0.594 | 0.475 | 0.556 | 0.477 | 0.534 | 0.449 | 0.548
10 | NCI-H2009 | 1.03 | 0.934 | 1.01 | 0.866 | 0.246 | 1.22 | 1.12 | 1.15 | 1.09 | 0.865 | 1.06 | 1.11 | 1.1 | 0.993 | 0.877 | 0.515 | 0.483 | 0.425 | 0.435 | 0.336
11 | NCI-H2023 | 1.2 | 0.901 | 0.957 | 0.95 | 0.647 | 1.03 | 0.811 | 1.01 | 0.864 | 0.894 | 0.24 | 0.255 | 0.288 | 0.255 | 0.149 | 0.475 | 0.443 | 0.213 | 0.23 | 0.208
12 | NCI-H2085 | 1.17 | 0.994 | 0.947 | 0.968 | 0.762 | 1.14 | 1.07 | 1.11 | 1.06 | 0.865 | 0.924 | 0.802 | 0.887 | 0.881 | 0.603 | 0.761 | 0.663 | 0.566 | 0.673 | 0.539
13 | NCI-H2087 | 0.829 | 0.845 | 0.927 | 1.13 | 0.839 | 1.14 | 1.01 | 1.06 | 1.09 | 0.802 | 0.697 | 0.671 | 0.75 | 0.71 | 0.703 | 0.524 | 0.448 | 0.272 | 0.385 | 0.352
14 | NCI-H2126 | 1.12 | 1.1 | 1.06 | 1.14 | 1.05 | 0.876 | 0.829 | 0.853 | 0.904 | 0.771 | 0.694 | 0.726 | 0.649 | 0.744 | 0.552 | 0.579 | 0.473 | 0.445 | 0.494 | 0.435
15 | NCI-H2228 | 1.36 | 0.999 | 1.37 | 1.05 | 0.401 | 0.94 | 0.811 | 0.819 | 0.823 | 0.359 | 0.33 | 0.345 | 0.349 | 0.353 | 0.195 | 0.313 | 0.313 | 0.182 | 0.323 | 0.221
16 | NCI-H2347 | 1.04 | 0.856 | 1.14 | 1.24 | 0.915 | 0.778 | 0.914 | 0.617 | 0.975 | 0.54 | 0.515 | 0.443 | 0.427 | 0.438 | 0.393 | 0.583 | 0.38 | 0.297 | 0.233 | 0.293
